Experimental data from patent US20260042764A1, “COMPOSITIONS AND METHODS FOR INHIBITION OF KRAS” (TheRas, Inc., priority 2022, published 2026).

Test system: GP2d cells (KRAS G12D)
Assay: Cell-based pERK HTRF assay in GP2d cell (Biological Example 2)
Conditions: GP2d, GP2d (KRAS G12D) cells, pERK HTRF
Summary of the method: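 Treatment with test compounds lasted one hour in DMEM containing 10% FBS, with DMSO held at 0.25%. Dilution series: 9 points, half-log spacing, highest 1 μM or 100 nM. Lysates were incubated 4–24 h at room temperature with antibody mix, then HTRF was read at 320 nm excitation.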

SMILES | IC50
N#Cc1c(N)sc2c(F)ccc(-c3c(C(F)(F)F)cc4c(N5CCO[C@@H]6C[C@@H]65)nc(OC[C@@]56CCCN5C[C@H](F)C6)nc4c3F)c12 [Compound 411] | < 0.1 µM
N#Cc1c(N)sc2c(F)ccc(-c3c(C(F)(F)F)cc4c(N5CCN6C(=O)CCC6C5)nc(OCC56CCCN5CC(F)C6)nc4c3F)c12 (stereo not drawn) [Compound 412] | < 0.1 µM
C[C@@]1(CO)CCN1c1nc(OC[C@@]23CCCN2C[C@H](F)C3)nc2c(F)c(-c3ccc(F)c4sc(N)c(C#N)c34)c(C(F)(F)F)cc12 [Compound 413] | > 1 µM
CCN(c1nc(OC[C@@]23CCCN2C[C@H](F)C3)nc2c(F)c(-c3ccc(F)c4sc(N)c(C#N)c34)c(C(F)(F)F)cc12)[C@@H]1CCN(C(C)=O)[C@H]1C [Compound 414] | < 0.1 µM
CCN(c1nc(OC[C@@]23CCCN2C[C@H](F)C3)nc2c(F)c(-c3ccc(F)c4sc(N)c(C#N)c34)c(C(F)(F)F)cc12)[C@@H]1CCN(C(=O)C2CC2)[C@H]1C [Compound 415] | < 0.1 µM

Target: T1, Avi-KRAS WT (1-169) GppNHp/RAF1 RBD-3xFLAG (52-151) (Homo sapiens, UniProt P01116)
T1 construct: Avi-KRAS WT (1-169)
Assay: Raf1-KRAS WT-GppNHP disruption HTRF assay (Biological Example 1)
Assay type: binding
Conditions: KRAS WT-GppNHp/RAF1 RBD HTRF
Summary of the method: (§1)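 Protein mix, 1 h RT, 700 rpm; reagent mix, 1 h RT, 700 rpm; HTRF read. Buffer Tris pH 7.5/NaCl/MgCl2/BSA/Tween, 10% DMSO. Output % activity, DMSO = 100%.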

T1 sequence (P01116 1-169 isoform P01116-2): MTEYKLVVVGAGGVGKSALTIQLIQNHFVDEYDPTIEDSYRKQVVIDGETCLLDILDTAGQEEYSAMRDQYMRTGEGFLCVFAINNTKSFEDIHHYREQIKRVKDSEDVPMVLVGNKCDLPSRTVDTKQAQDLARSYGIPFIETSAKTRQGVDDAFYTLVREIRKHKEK

SMILES | IC50
N#Cc1c(N)sc2c(F)ccc(-c3c(C(F)(F)F)cc4c(N5CCO[C@@H]6C[C@@H]65)nc(OC[C@@]56CCCN5C[C@H](F)C6)nc4c3F)c12 [Compound 411] | 0.1 to 1 µM
N#Cc1c(N)sc2c(F)ccc(-c3c(C(F)(F)F)cc4c(N5CCN6C(=O)CCC6C5)nc(OCC56CCCN5CC(F)C6)nc4c3F)c12 (stereo not drawn) [Compound 412] | 0.1 to 1 µM
C[C@@]1(CO)CCN1c1nc(OC[C@@]23CCCN2C[C@H](F)C3)nc2c(F)c(-c3ccc(F)c4sc(N)c(C#N)c34)c(C(F)(F)F)cc12 [Compound 413] | > 10 µM
CCN(c1nc(OC[C@@]23CCCN2C[C@H](F)C3)nc2c(F)c(-c3ccc(F)c4sc(N)c(C#N)c34)c(C(F)(F)F)cc12)[C@@H]1CCN(C(C)=O)[C@H]1C [Compound 414] | 0.1 to 1 µM
CCN(c1nc(OC[C@@]23CCCN2C[C@H](F)C3)nc2c(F)c(-c3ccc(F)c4sc(N)c(C#N)c34)c(C(F)(F)F)cc12)[C@@H]1CCN(C(=O)C2CC2)[C@H]1C [Compound 415] | 0.1 to 1 µM

Target: T2, Avi-KRAS G12D (1-169) GppNHp/RAF1 RBD-3xFLAG (52-151) (Homo sapiens, UniProt P01116, G12D)
T2 construct: Avi-KRAS G12D (1-169)
Assay: Raf1-KRAS G12D-GppNHP disruption HTRF assay (Biological Example 1)
Assay type: binding
Conditions: KRAS G12D-GppNHp/RAF1 RBD HTRF
Summary of the method: as §1

T2 sequence (P01116 1-169 isoform P01116-2 G12D): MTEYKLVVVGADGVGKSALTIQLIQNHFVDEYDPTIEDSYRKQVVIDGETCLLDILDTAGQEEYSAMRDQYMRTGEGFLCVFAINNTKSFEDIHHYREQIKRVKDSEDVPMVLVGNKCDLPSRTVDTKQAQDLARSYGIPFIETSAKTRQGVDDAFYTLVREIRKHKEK

SMILES | IC50
N#Cc1c(N)sc2c(F)ccc(-c3c(C(F)(F)F)cc4c(N5CCO[C@@H]6C[C@@H]65)nc(OC[C@@]56CCCN5C[C@H](F)C6)nc4c3F)c12 [Compound 411] | 0.1 to 1 µM
N#Cc1c(N)sc2c(F)ccc(-c3c(C(F)(F)F)cc4c(N5CCN6C(=O)CCC6C5)nc(OCC56CCCN5CC(F)C6)nc4c3F)c12 (stereo not drawn) [Compound 412] | 0.1 to 1 µM
C[C@@]1(CO)CCN1c1nc(OC[C@@]23CCCN2C[C@H](F)C3)nc2c(F)c(-c3ccc(F)c4sc(N)c(C#N)c34)c(C(F)(F)F)cc12 [Compound 413] | > 10 µM
CCN(c1nc(OC[C@@]23CCCN2C[C@H](F)C3)nc2c(F)c(-c3ccc(F)c4sc(N)c(C#N)c34)c(C(F)(F)F)cc12)[C@@H]1CCN(C(C)=O)[C@H]1C [Compound 414] | 0.1 to 1 µM
CCN(c1nc(OC[C@@]23CCCN2C[C@H](F)C3)nc2c(F)c(-c3ccc(F)c4sc(N)c(C#N)c34)c(C(F)(F)F)cc12)[C@@H]1CCN(C(=O)C2CC2)[C@H]1C [Compound 415] | 0.1 to 1 µM

Target: T3, Avi-KRAS G12R (1-169) GppNHp/RAF1 RBD-3xFLAG (52-151) (Homo sapiens, UniProt P01116, G12R)
T3 construct: Avi-KRAS G12R (1-169)
Assay: Raf1-KRAS G12R-GppNHP disruption HTRF assay (Biological Example 1)
Assay type: binding
Conditions: KRAS G12R-GppNHp/RAF1 RBD HTRF
Summary of the method: as §1

T3 sequence (P01116 1-169 isoform P01116-2 G12R): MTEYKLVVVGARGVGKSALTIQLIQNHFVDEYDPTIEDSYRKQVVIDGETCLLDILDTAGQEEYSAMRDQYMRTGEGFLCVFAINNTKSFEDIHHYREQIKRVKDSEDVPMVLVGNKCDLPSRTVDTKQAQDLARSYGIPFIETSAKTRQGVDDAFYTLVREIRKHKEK

SMILES | IC50
N#Cc1c(N)sc2c(F)ccc(-c3c(C(F)(F)F)cc4c(N5CCO[C@@H]6C[C@@H]65)nc(OC[C@@]56CCCN5C[C@H](F)C6)nc4c3F)c12 [Compound 411] | 0.1 to 1 µM
N#Cc1c(N)sc2c(F)ccc(-c3c(C(F)(F)F)cc4c(N5CCN6C(=O)CCC6C5)nc(OCC56CCCN5CC(F)C6)nc4c3F)c12 (stereo not drawn) [Compound 412] | 0.1 to 1 µM
C[C@@]1(CO)CCN1c1nc(OC[C@@]23CCCN2C[C@H](F)C3)nc2c(F)c(-c3ccc(F)c4sc(N)c(C#N)c34)c(C(F)(F)F)cc12 [Compound 413] | > 10 µM
CCN(c1nc(OC[C@@]23CCCN2C[C@H](F)C3)nc2c(F)c(-c3ccc(F)c4sc(N)c(C#N)c34)c(C(F)(F)F)cc12)[C@@H]1CCN(C(C)=O)[C@H]1C [Compound 414] | 0.1 to 1 µM
CCN(c1nc(OC[C@@]23CCCN2C[C@H](F)C3)nc2c(F)c(-c3ccc(F)c4sc(N)c(C#N)c34)c(C(F)(F)F)cc12)[C@@H]1CCN(C(=O)C2CC2)[C@H]1C [Compound 415] | 0.1 to 1 µM

Target: T4, Avi-KRAS G12V (1-169) GppNHp/RAF1 RBD-3xFLAG (52-151) (Homo sapiens, UniProt P01116, G12V)
T4 construct: Avi-KRAS G12V (1-169)
Assay: Raf1-KRAS G12V-GppNHP disruption HTRF assay (Biological Example 1)
Assay type: binding
Conditions: KRAS G12V-GppNHp/RAF1 RBD HTRF
Summary of the method: as §1

T4 sequence (P01116 1-169 isoform P01116-2 G12V): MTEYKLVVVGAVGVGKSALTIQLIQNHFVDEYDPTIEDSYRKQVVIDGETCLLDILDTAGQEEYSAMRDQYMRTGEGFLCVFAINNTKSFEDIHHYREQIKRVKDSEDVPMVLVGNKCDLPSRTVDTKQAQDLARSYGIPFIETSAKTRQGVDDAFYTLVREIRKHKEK

SMILES | IC50
N#Cc1c(N)sc2c(F)ccc(-c3c(C(F)(F)F)cc4c(N5CCO[C@@H]6C[C@@H]65)nc(OC[C@@]56CCCN5C[C@H](F)C6)nc4c3F)c12 [Compound 411] | 0.1 to 1 µM
N#Cc1c(N)sc2c(F)ccc(-c3c(C(F)(F)F)cc4c(N5CCN6C(=O)CCC6C5)nc(OCC56CCCN5CC(F)C6)nc4c3F)c12 (stereo not drawn) [Compound 412] | 0.1 to 1 µM
C[C@@]1(CO)CCN1c1nc(OC[C@@]23CCCN2C[C@H](F)C3)nc2c(F)c(-c3ccc(F)c4sc(N)c(C#N)c34)c(C(F)(F)F)cc12 [Compound 413] | > 10 µM
CCN(c1nc(OC[C@@]23CCCN2C[C@H](F)C3)nc2c(F)c(-c3ccc(F)c4sc(N)c(C#N)c34)c(C(F)(F)F)cc12)[C@@H]1CCN(C(C)=O)[C@H]1C [Compound 414] | 0.1 to 1 µM
CCN(c1nc(OC[C@@]23CCCN2C[C@H](F)C3)nc2c(F)c(-c3ccc(F)c4sc(N)c(C#N)c34)c(C(F)(F)F)cc12)[C@@H]1CCN(C(=O)C2CC2)[C@H]1C [Compound 415] | 1 to 10 µM

Test system: SW620 cells (KRAS G12V)
Assay: Cell-based pERK HTRF assay in SW620 cell (Biological Example 4)
Conditions: Homo sapiens, SW-620, SW620 (KRAS G12V) cells, pERK HTRF
Summary of the method: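 SW620 seeded in RPMI/10% FBS, next day dosed 4 h (top 1 μM, half-log, 9 pts, 0.25% DMSO). Lysed, pERK by d2/Eu cryptate HTRF, 4–24 h RT, 615 nm read.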

SMILES | IC50
N#Cc1c(N)sc2c(F)ccc(-c3c(C(F)(F)F)cc4c(N5CCO[C@@H]6C[C@@H]65)nc(OC[C@@]56CCCN5C[C@H](F)C6)nc4c3F)c12 [Compound 411] | < 0.1 µM
N#Cc1c(N)sc2c(F)ccc(-c3c(C(F)(F)F)cc4c(N5CCN6C(=O)CCC6C5)nc(OCC56CCCN5CC(F)C6)nc4c3F)c12 (stereo not drawn) [Compound 412] | < 0.1 µM
C[C@@]1(CO)CCN1c1nc(OC[C@@]23CCCN2C[C@H](F)C3)nc2c(F)c(-c3ccc(F)c4sc(N)c(C#N)c34)c(C(F)(F)F)cc12 [Compound 413] | > 1 µM
CCN(c1nc(OC[C@@]23CCCN2C[C@H](F)C3)nc2c(F)c(-c3ccc(F)c4sc(N)c(C#N)c34)c(C(F)(F)F)cc12)[C@@H]1CCN(C(C)=O)[C@H]1C [Compound 414] | 0.1 to 1 µM
CCN(c1nc(OC[C@@]23CCCN2C[C@H](F)C3)nc2c(F)c(-c3ccc(F)c4sc(N)c(C#N)c34)c(C(F)(F)F)cc12)[C@@H]1CCN(C(=O)C2CC2)[C@H]1C [Compound 415] | < 0.1 µM
